From patent publication US10982284B2, “Compositions and methods APC, CREB, and BAD pathways to assess and affect cancer” (H. Lee Moffitt Cancer Center and Research Institute, Inc., priority 2011, dated 2021)

What was measured:
Assay in all cases: CellTiter-Blue cell viability assay
Type in all cases: cell-based, human
[1] = tested on: HeyA8; settings: HeyA8 ovarian cancer cell line, 72 hours, 50% reduction in growth/viability
Excerpt: (§1) Ovarian cancer cell lines were obtained from the American Type Culture Collection (Manassas, Va.) (CAOV3, OV90, OVCAR3, SKOV3, TO[…]); from the European Collection of Cell Cultures, Salisbury, UK (A2780CP, A2780S); or from Kyoto University, Kyoto, Japan ([…], Tyknu, and TyknuC is R) or were kind gifts from Dr. Patricia Kruk, Department of Pathology, College of Medicine, University of South Florida, Tampa, Fla., and Susan Murphy, PhD, Dept of OBGYN/Division of GYN Oncology, Duke University, Durham, N.C. […] Cell lines were maintained in RPMI-1640 (Invitrogen, Carlsbad, Calif.) supplemented with 10% fetal bovine serum (Fisher Scientific, Pittsburgh, Pa.), 1% sodium pyruvate, 1% penicillin/streptomycin (Cellgro, Manassas, Va.), and 1% nonessential amino acids (HyClone, Hudson, N.H.). Mycoplasma testing was performed every 6 months following manufacturer's protocol (Lonza, Rockland, Me.). Drug activity was evaluated using a high-throughput CellTiter-Blue cell viability assay. […] After cell adherence, increasing concentrations of cisplatin, carboplatin (Sigma-Aldrich, St. Louis, Mo.), paclitaxel (Sequoia Research Products Ltd., Pangbourne, UK), or carboplatin plus paclitaxel (carbotaxol: constant molar ratio of carboplatin to paclitaxel of 20,000:1) were added to appropriate wells using an automated pipetting station. Four replicate wells were used for each drug concentration and vehicle controls. […] The cells were incubated with the drug for 72 hours, and 5 μL of CellTiter-Blue reagent (Promega Corp) was added to each well. Fluorescence was read at […] using a Synergy 4 microplate reader (Bio-Tek Instruments, Inc., Winooski, Vt.).

[2] = tested on: SKOV3; settings: SKOV3 ovarian cancer cell line, 72 hours, 50% reduction in growth/viability
Excerpt: as §1

[3] = tested on: OVCAR3; settings: OVCAR3 ovarian cancer cell line, 72 hours, 50% reduction in growth/viability
Excerpt: as §1

[4] = tested on: OVCAR4; settings: OVCAR4 ovarian cancer cell line, 72 hours, 50% reduction in growth/viability
Excerpt: as §1

[5] = tested on: A2780S; settings: A2780S ovarian cancer cell line, 72 hours, 50% reduction in growth/viability
Excerpt: as §1

[6] = tested on: OVCA433; settings: OVCA433 ovarian cancer cell line, 72 hours, 50% reduction in growth/viability
Excerpt: as §1

[7] = tested on: M41; settings: M41 ovarian cancer cell line, 72 hours, 50% reduction in growth/viability
Excerpt: as §1

[8] = tested on: Ovary1847; settings: Ovary1847 ovarian cancer cell line, 72 hours, 50% reduction in growth/viability
Excerpt: as §1

[9] = tested on: MCAS; settings: MCAS ovarian cancer cell line, 72 hours, 50% reduction in growth/viability
Excerpt: as §1

[10] = tested on: CAOV2; settings: CAOV2 ovarian cancer cell line, 72 hours, 50% reduction in growth/viability
Excerpt: as §1

[11] = tested on: OVCA432; settings: OVCA432 ovarian cancer cell line, 72 hours, 50% reduction in growth/viability
Excerpt: as §1

[12] = tested on: C13; settings: C13 ovarian cancer cell line, 72 hours, 50% reduction in growth/viability
Excerpt: as §1

[13] = tested on: OVCAR2; settings: OVCAR2 ovarian cancer cell line, 72 hours, 50% reduction in growth/viability
Excerpt: as §1

[14] = tested on: Tyknu; settings: Tyknu ovarian cancer cell line, 72 hours, 50% reduction in growth/viability
Excerpt: as §1

[15] = tested on: A2780CP; settings: A2780CP ovarian cancer cell line, 72 hours, 50% reduction in growth/viability
Excerpt: as §1

[16] = tested on: M41CSR; settings: M41CSR ovarian cancer cell line, 72 hours, 50% reduction in growth/viability
Excerpt: as §1

[17] = tested on: OVCAR10; settings: OVCAR10 ovarian cancer cell line, 72 hours, 50% reduction in growth/viability
Excerpt: as §1

[18] = tested on: A2008; settings: A2008 ovarian cancer cell line, 72 hours, 50% reduction in growth/viability
Excerpt: as §1

[19] = tested on: IMCC5; settings: IMCC5 ovarian cancer cell line, 72 hours, 50% reduction in growth/viability
Excerpt: as §1

[20] = tested on: CHIcisR; settings: CHIcisR ovarian cancer cell line, 72 hours, 50% reduction in growth/viability
Excerpt: as §1

[21] = tested on: SK-OV-4; settings: SK-OV-4 ovarian cancer cell line, 72 hours, 50% reduction in growth/viability
Excerpt: as §1

[22] = tested on: TOV112D; settings: TOV112D ovarian cancer cell line, 72 hours, 50% reduction in growth/viability
Excerpt: as §1

[23] = tested on: OVCAR8; settings: OVCAR8 ovarian cancer cell line, 72 hours, 50% reduction in growth/viability
Excerpt: as §1

[24] = tested on: Dov13; settings: Dov13 ovarian cancer cell line, 72 hours, 50% reduction in growth/viability
Excerpt: as §1

[25] = tested on: CAOV3; settings: CAOV3 ovarian cancer cell line, 72 hours, 50% reduction in growth/viability
Excerpt: as §1

[26] = tested on: CHI; settings: CHI ovarian cancer cell line, 72 hours, 50% reduction in growth/viability
Excerpt: as §1

[27] = tested on: OVCA429; settings: OVCA429 ovarian cancer cell line, 72 hours, 50% reduction in growth/viability
Excerpt: as §1

N.N.O=C([O-])C1(C(=O)[O-])CCC1.[Pt+2] [Carboplatin, carboplatin]
IC50 [1]: 291 µM
IC50 [2]: 247 µM
IC50 [3]: 83.7 µM
IC50 [4]: 72 µM
IC50 [5]: 24.3 µM
IC50 [6]: 270 µM
IC50 [7]: 41.6 µM
IC50 [8]: 172 µM
IC50 [9]: 237 µM
IC50 [10]: 70.2 µM
IC50 [11]: 63.1 µM
IC50 [12]: 56.8 µM
IC50 [13]: 45.5 µM
IC50 [14]: 9.6 µM
IC50 [15]: 94.2 µM
IC50 [16]: 48.2 µM
IC50 [17]: 128 µM
IC50 [18]: 20.2 µM
IC50 [19]: 41.3 µM
IC50 [20]: 20 µM
IC50 [21]: 23 µM
IC50 [22]: 75.8 µM
IC50 [23]: 56.1 µM
IC50 [24]: 104 µM
IC50 [25]: 69.4 µM
IC50 [26]: 23.6 µM
IC50 [27]: 225 µM

CC(=O)O[C@H]1C(=O)[C@@]2(C)[C@H]([C@H](OC(=O)c3ccccc3)[C@]3(O)C[C@H](OC(=O)[C@H](O)[C@@H](NC(=O)c4ccccc4)c4ccccc4)C(C)=C1C3(C)C)[C@]1(OC(C)=O)CO[C@@H]1C[C@@H]2O [Paclitaxel, paclitaxel]
IC50 ([1]; Homo sapiens, HEY A8): 0.0174 µM
IC50 ([2]; Homo sapiens, SK-OV-3): 0.0887 µM
IC50 ([3]; Homo sapiens, OVCAR-3): 0.0169 µM
IC50 ([4]; Homo sapiens, OVCAR-4): 0.0178 µM
IC50 ([5]; Homo sapiens): 0.0024 µM
IC50 ([6]; Homo sapiens): 0.0021 µM
IC50 ([7]; Homo sapiens): 0.0063 µM
IC50 ([8]; Homo sapiens): 0.0056 µM
IC50 ([9]; Homo sapiens): 0.0029 µM
IC50 ([10]; Homo sapiens): 0.0204 µM
IC50 ([11]; Homo sapiens): 0.0063 µM
IC50 ([12]; Homo sapiens): 0.0032 µM
IC50 ([13]; Homo sapiens): 0.0028 µM
IC50 ([14]; Homo sapiens): 0.0083 µM
IC50 ([15]; Homo sapiens, A2780C/P): 0.004 µM
IC50 ([16]; Homo sapiens): 0.0025 µM
IC50 ([17]; Homo sapiens): 0.0071 µM
IC50 ([18]; Homo sapiens): 0.0058 µM
IC50 ([19]; Homo sapiens): 0.0031 µM
IC50 ([20]; Homo sapiens): 0.0018 µM
IC50 ([21]; Homo sapiens): 0.0023 µM
IC50 ([22]; Homo sapiens): 0.111 µM
IC50 ([23]; Homo sapiens, OVCAR-8): 0.0057 µM
IC50 ([24]; Homo sapiens): 0.0173 µM
IC50 ([25]; Homo sapiens, Caov-3): 0.0046 µM
IC50 ([26]; Homo sapiens): 0.000999 µM
IC50 ([27]; Homo sapiens): 0.0029 µM
